Data taken from US10758534B2 (Vertex Pharmaceuticals Incorporated, priority 2014, dated 2020).

Target: T1, F508del (Homo sapiens, UniProt P13569, DEL508-508)
T1 construct: expressed in transfected cells
Assay: Protocol 1: membrane potential optical assay (FLIPR III, voltage sensing dye), identification of potentiator compounds
Type: cell-based
Settings: Table 3, compounds of Table 1
Summary of the method: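 NIH 3T3 fibroblasts stably expressing F508del were cultured at 27° C for 24 hrs for temperature correction, then treated with compounds or DMSO and loaded with a voltage-sensing redistribution dye. Forskolin added with a Cl⁻ gradient activated the channel; membrane-potential fluorescence on FLIPR III reported increased gating.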

T1 sequence (P13569 with tags, fused parts or gaps DEL508-508): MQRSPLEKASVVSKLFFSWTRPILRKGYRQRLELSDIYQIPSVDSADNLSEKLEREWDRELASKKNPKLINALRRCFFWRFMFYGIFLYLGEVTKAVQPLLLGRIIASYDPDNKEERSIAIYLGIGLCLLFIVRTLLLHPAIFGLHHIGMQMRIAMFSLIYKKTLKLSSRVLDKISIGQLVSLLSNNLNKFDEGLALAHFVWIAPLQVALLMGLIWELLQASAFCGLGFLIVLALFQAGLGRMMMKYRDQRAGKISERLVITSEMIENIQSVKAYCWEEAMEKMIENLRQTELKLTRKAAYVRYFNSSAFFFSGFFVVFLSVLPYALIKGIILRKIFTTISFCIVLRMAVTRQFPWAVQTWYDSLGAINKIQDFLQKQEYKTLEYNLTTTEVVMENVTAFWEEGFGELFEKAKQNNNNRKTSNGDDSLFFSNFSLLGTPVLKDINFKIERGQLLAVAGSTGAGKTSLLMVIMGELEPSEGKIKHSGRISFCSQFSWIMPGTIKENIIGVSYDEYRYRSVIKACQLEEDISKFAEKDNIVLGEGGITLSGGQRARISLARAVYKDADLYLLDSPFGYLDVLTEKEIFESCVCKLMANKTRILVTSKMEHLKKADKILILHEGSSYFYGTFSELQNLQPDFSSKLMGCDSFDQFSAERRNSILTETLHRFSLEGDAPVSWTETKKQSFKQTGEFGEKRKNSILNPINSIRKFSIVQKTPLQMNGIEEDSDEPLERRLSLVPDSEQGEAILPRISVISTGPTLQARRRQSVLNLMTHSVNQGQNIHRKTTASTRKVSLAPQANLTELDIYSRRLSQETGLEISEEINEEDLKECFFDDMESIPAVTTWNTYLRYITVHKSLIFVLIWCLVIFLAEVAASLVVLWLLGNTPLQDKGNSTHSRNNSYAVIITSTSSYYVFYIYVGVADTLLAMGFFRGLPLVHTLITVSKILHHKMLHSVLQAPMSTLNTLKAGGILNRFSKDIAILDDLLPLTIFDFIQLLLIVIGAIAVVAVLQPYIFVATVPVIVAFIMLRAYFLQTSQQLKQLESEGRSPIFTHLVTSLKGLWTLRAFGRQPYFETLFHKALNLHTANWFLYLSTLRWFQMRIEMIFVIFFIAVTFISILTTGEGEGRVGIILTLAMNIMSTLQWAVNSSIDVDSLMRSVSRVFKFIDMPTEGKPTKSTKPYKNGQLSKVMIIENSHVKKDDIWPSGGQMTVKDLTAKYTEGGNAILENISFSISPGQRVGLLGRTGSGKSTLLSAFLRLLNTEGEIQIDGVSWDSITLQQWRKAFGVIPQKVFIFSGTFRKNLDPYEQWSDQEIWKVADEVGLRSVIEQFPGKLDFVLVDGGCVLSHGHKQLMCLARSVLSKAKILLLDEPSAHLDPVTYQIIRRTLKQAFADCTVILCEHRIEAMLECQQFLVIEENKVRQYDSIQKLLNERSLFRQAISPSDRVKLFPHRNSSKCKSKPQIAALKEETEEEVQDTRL

| Compound | EC30 |
| --- | --- |
| COC1CCCN(S(=O)(=O)NC(=O)c2ccc(-c3cc(F)cc(OCC(C)C)c3)nc2N2C[C@@H](C)CC2(C)C)C1 (stereo partly drawn) [Compound 1545, 6-(3-fluoro-5-isobutoxy-phenyl)-N-[(3-methoxy-1-piperidyl)sulfonyl]-2-[(4S)-2,2,4-trimethylpyrrolidin-1-yl]pyridine-3-carboxamide] | +++ (“+++” means <3 uM) |
| CCOc1cccc2c1CN(Cc1c(C)cc(C)cc1C)C2(C)C(=O)NS(=O)(=O)c1nccs1 (stereo not shown) [Compound 1546, 4-ethoxy-1-methyl-N-thiazol-2-ylsulfonyl-2-[(2,4,6-trimethylphenyl)methyl]isoindoline-1-carboxamide] | +++ (“+++” means <3 uM) |
| CC(C)COc1cc(F)cc(-c2ccc(C(=O)NS(=O)(=O)c3cccc(N)n3)c(N3CC(C)OCC3(C)C)n2)c1 (stereo not shown) [Compound 1548, N-[(6-amino-2-pyridyl)sulfonyl]-6-(3-fluoro-5-isobutoxy-phenyl)-2-(2,5,5-trimethylmorpholin-4-yl)pyridine-3-carboxamide] | +++ (“+++” means <3 uM) |
| Cc1cc(C)c(Oc2cc(-c3cc(F)cc(OCC(C)C)c3)ccc2C(=O)NS(=O)(=O)c2cccc(N)n2)c(C)c1 [Compound 1549, N-[(6-amino-2-pyridyl)sulfonyl]-4-(3-fluoro-5-isobutoxy-phenyl)-2-(2,4,6-trimethylphenoxy)benzamide] | +++ (“+++” means <3 uM) |
| COc1ccccc1S(=O)(=O)NC(=O)c1cc(C(C)(C)C)nn1Cc1c(C)cccc1C [Compound 1551, 5-tert-butyl-2-[(2,6-dimethylphenyl)methyl]-N-(2-methoxyphenyl)sulfonyl-pyrazole-3-carboxamide] | +++ (“+++” means <3 uM) |
| CNC1CCN(S(=O)(=O)NC(=O)c2ccc(-c3cc(F)cc(OCC(C)C)c3)nc2N2CC(C)CC2(C)C)C1 (stereo not shown) [Compound 1554, 6-(3-fluoro-5-isobutoxy-phenyl)-N—[3-(methylamino)pyrrolidin-1-yl]sulfonyl-2-(2,2,4-trimethylpyrrolidin-1-yl)pyridine-3-carboxamide] | +++ (“+++” means <3 uM) |
| CCOc1cccc2c1CN(Cc1c(C)cc(C)cc1C)C2(C)C(=O)NS(=O)(=O)c1cnc(NC(C)=O)s1 (stereo not shown) [Compound 1555, N-(2-acetamidothiazol-5-yl)sulfonyl-4-ethoxy-1-methyl-2-[(2,4,6-trimethylphenyl)methyl]isoindoline-1-carboxamide] | +++ (“+++” means <3 uM) |
| CC(C)COc1cc(F)cc(-c2ccc(C(=O)NS(=O)(=O)N3CC[C@H](N)C3)c(N3C[C@@H](C)CC3(C)C)n2)c1 [Compound 1557, N-[(3S)-3-aminopyrrolidin-1-yl]sulfonyl-6-(3-fluoro-5-isobutoxy-phenyl)-2-[(4S)-2,2,4-trimethylpyrrolidin-1-yl]pyridine-3-carboxamide] | +++ (“+++” means <3 uM) |
| Cc1cc(C)c(Oc2nc(C3=CCC4(CC3)OCCO4)ccc2C(=O)NS(=O)(=O)c2cccc(N)n2)c(C)c1 [Compound 1558, N-[(6-amino-2-pyridyl)sulfonyl]-6-(1,4-dioxaspiro[4.5]dec-8-en-8-yl)-2-(2,4,6-trimethylphenoxy)pyridine-3-carboxamide] | ++ (“++” means between 3 uM and 10 uM) |
| CC(C)COc1cc(F)cc(-c2ccc(C(=O)NS(=O)(=O)c3cccc(N)n3)c(OC3CC(OCc4ccccc4)C3)n2)c1 (stereo not shown) [Compound 1559, N-[(6-amino-2-pyridyl)sulfonyl]-2-(3-benzyloxycyclobutoxy)-6-(3-fluoro-5-isobutoxy-phenyl)pyridine-3-carboxamide] | +++ (“+++” means <3 uM) |
| CC(C)COc1cc(F)cc(-c2ccc(C(=O)NS(=O)(=O)N3CCC(S(C)(=O)=O)C3)c(N3C[C@@H](C)CC3(C)C)n2)c1 (stereo partly drawn) [Compound 1560, 6-(3-fluoro-5-isobutoxy-phenyl)-N-(3-methylsulfonylpyrrolidin-1-yl)sulfonyl-2-[(4S)-2,2,4-trimethylpyrrolidin-1-yl]pyridine-3-carboxamide] | +++ (“+++” means <3 uM) |
| CCOc1cccc2c1CN(Cc1c(C)cc(C)cc1C)C2(C)C(=O)NS(=O)(=O)c1ccc(C(C)C)c(N)c1 (stereo not shown) [Compound 1562, N-(3-amino-4-isopropyl-phenyl)sulfonyl-4-ethoxy-1-methyl-2-[(2,4,6-trimethylphenyl)methyl]isoindoline-1-carboxamide] | +++ (“+++” means <3 uM) |
| CC(C)COc1cc(F)cc(-c2ccc(C(=O)NS(=O)(=O)c3ccc(O)c(N)n3)c(N3C[C@@H](C)CC3(C)C)n2)c1 [Compound 1563, N-[(6-amino-5-hydroxy-2-pyridyl)sulfonyl]-6-(3-fluoro-5-isobutoxy-phenyl)-2-[(4S)-2,2,4-trimethylpyrrolidin-1-yl]pyridine-3-carboxamide] | +++ (“+++” means <3 uM) |
| CCOc1cccc2c1CN(Cc1ccc(Cl)nc1)C2(C)C(=O)NS(=O)(=O)c1cccc(N)n1 (stereo not shown) [Compound 1565, N-[(6-amino-2-pyridyl)sulfonyl]-2-[(6-chloro-3-pyridyl)methyl]-4-ethoxy-1-methyl-isoindoline-1-carboxamide] | + (“+” means greater than 10 uM) |
| Cc1cc(C)c(Cn2nc(C(C)(C)C)cc2C(=O)NS(=O)(=O)c2cn(C)cn2)c(C)c1 [Compound 1568, 5-tert-butyl-N-(1-methylimidazol-4-yl)sulfonyl-2-[(2,4,6-trimethylphenyl)methyl]pyrazole-3-carboxamide] | +++ (“+++” means <3 uM) |
| CC(C)COc1cc(F)cc(-c2ccc(C(=O)NS(=O)(=O)c3cccc(N)n3)c(OCC3CCCCO3)n2)c1 (stereo not shown) [Compound 1570, N-[(6-amino-2-pyridyl)sulfonyl]-6-(3-fluoro-5-isobutoxy-phenyl)-2-(tetrahydropyran-2-ylmethoxy)pyridine-3-carboxamide] | +++ (“+++” means <3 uM) |
| Cc1cc(C)c2c(c1)CCN2c1nc(-c2cc(F)cc(OCC(C)C)c2)ccc1C(=O)NS(=O)(=O)c1cccc(N)n1 [Compound 1572, N-[(6-amino-2-pyridyl)sulfonyl]-2-(5,7-dimethylindolin-1-yl)-6-(3-fluoro-5-isobutoxy-phenyl)pyridine-3-carboxamide] | +++ (“+++” means <3 uM) |

Results, then the compound that gave them:

| EC30 | Compound |
| --- | --- |
| ++ (“++” means between 3 uM and 10 uM) | C[C@@H]1CN(c2nc(C(C)(C)C)c(/C=C/C(=O)O)cc2C(=O)NS(=O)(=O)c2cccc(N)n2)C(C)(C)C1 [Compound 1547, (E)-3-[5-[(6-amino-2-pyridyl)sulfonylcarbamoyl]-2-tert-butyl-6-[(4S)-2,2,4-trimethylpyrrolidin-1-yl]-3-pyridyl]prop-2-enoic acid] |
| ++ (“++” means between 3 uM and 10 uM) | C[C@@H]1CN(c2ncc(C(F)(F)F)cc2C(=O)NS(=O)(=O)c2cccc(N)n2)C(C)(C)C1 [Compound 1550, N-[(6-amino-2-pyridyl)sulfonyl]-5-(trifluoromethyl)-2-[(4S)-2,2,4-trimethylpyrrolidin-1-yl]pyridine-3-carboxamide] |
| +++ (“+++” means <3 uM) | CC(C)COc1cc(F)cc(-c2ccc(C(=O)NS(=O)(=O)c3cccc(N)n3)c(C3CC(C)(C)CC3(C)C)n2)c1 (stereo not shown) [Compound 1552] |
| +++ (“+++” means <3 uM) | Cc1cc(C)c(Oc2nc(N3CCCC3C)ccc2C(=O)NS(=O)(=O)c2cccc(N)n2)c(C)c1 (stereo not shown) [Compound 1553, N-[(6-amino-2-pyridyl)sulfonyl]-6-(2-methylpyrrolidin-1-yl)-2-(2,4,6-trimethylphenoxy)pyridine-3-carboxamide] |
| +++ (“+++” means <3 uM) | C[C@@H]1CN(c2nc(C(F)(F)F)ccc2C(=O)NS(=O)(=O)c2cccc(N)n2)C(C)(C)C1 [Compound 1556, N-[(6-amino-2-pyridyl)sulfonyl]-6-(trifluoromethyl)-2-[(4S)-2,2,4-trimethylpyrrolidin-1-yl]pyridine-3-carboxamide] |
| +++ (“+++” means <3 uM) | CC(C)=Cc1cc(C(=O)NS(=O)(=O)c2cccc(N)n2)c(N2CC(C)CC2(C)C)nc1C(C)(C)C (stereo not shown) [Compound 1561, N-[(6-amino-2-pyridyl)sulfonyl]-6-tert-butyl-5-(2-methylprop-1-enyl)-2-(2,2,4-trimethylpyrrolidin-1-yl)pyridine-3-carboxamide] |
| ++ (“++” means between 3 uM and 10 uM) | C[C@@H]1CN(c2nc(C#N)ccc2C(=O)NS(=O)(=O)c2cccc(N)n2)C(C)(C)C1 [Compound 1564, N-[(6-amino-2-pyridyl)sulfonyl]-6-cyano-2-[(4S)-2,2,4-trimethylpyrrolidin-1-yl]pyridine-3-carboxamide] |
| +++ (“+++” means <3 uM) | C[C@@H]1CN(c2nc(C(C)(C)C)c(/C=C/c3ccc(C(F)(F)F)cc3)cc2C(=O)NS(=O)(=O)c2cccc(N)n2)C(C)(C)C1 [Compound 1566, N-[(6-amino-2-pyridyl)sulfonyl]-6-tert-butyl-5-[(E)-2-[4-(trifluoromethyl)phenyl]vinyl]-2-[(4S)-2,2,4-trimethylpyrrolidin-1-yl]pyridine-3-carboxamide] |
| +++ (“+++” means <3 uM) | CC(CO)COc1cc(F)cc(-c2ccc(C(=O)NS(=O)(=O)c3cccc(N)n3)c(N3C[C@@H](C)CC3(C)C)n2)c1 (stereo partly drawn) [Compound 1567, N-[(6-amino-2-pyridyl)sulfonyl]-6-[3-fluoro-5-(3-hydroxy-2-methyl-propoxy)phenyl]-2-[(4S)-2,2,4-trimethylpyrrolidin-1-yl]pyridine-3-carboxamide] |
| +++ (“+++” means <3 uM) | CCOc1cc(-c2ccc(C(=O)NS(=O)(=O)c3cccc(N)n3)c(N3C[C@@H](C)CC3(C)C)n2)cc(C(F)(F)F)c1 [Compound 1569, N-[(6-amino-2-pyridyl)sulfonyl]-6-[3-ethoxy-5-(trifluoromethyl)phenyl]-2-[(4S)-2,2,4-trimethylpyrrolidin-1-yl]pyridine-3-carboxamide] |
| +++ (“+++” means <3 uM) | CC1CN(c2ncc(/C=C/C3CC3)cc2C(=O)NS(=O)(=O)c2cccc(N)n2)C(C)(C)C1 (stereo not shown) [Compound 1571, N-[(6-amino-2-pyridyl)sulfonyl]-5-[(E)-2-cyclopropylvinyl]-2-(2,2,4-trimethylpyrrolidin-1-yl)pyridine-3-carboxamide] |
